Experimental data from US20190008790A1, “A METHOD FOR THE PREPARATION OF A DELIVERY DRUG DELIVERY SYSTEM AND A COMPOSITION THEREFOR” (Element Six (UK) Limited, priority 2015, published 2019).
In brackets after ≈: the same amount, converted by molar mass.

Columns and labels:
[1] = system: Staphylococcus aureus subsp. aureus MRSA252; assay: Minimum Bactericidal Concentration Test (MBC), re-growth as percentage of positive control; type: cell-based; conditions: ciprofloxacin concentration, dilutions of 0.5 mg/ml stock, re-growth vs positive control, read-out: concentration at which activity against MRSA252 was maintained (MBC test)
Protocol: In this example, the efficacy of the product of Example 7 was tested against Comparative Example 7 using a Minimum Bactericidal Concentration Test (MBC) to compare the inhibitory.
A sample of the spray dried powder obtained from Example 7 was dispersed into deionised water to give a ciprofloxacin concentration of 0.5 mg/ml (“Solution A”). A dispersion having the same concentration of ciprofloxacin was prepared by dissolving ciprofloxacin into dimethyl sulfoxide (“Solution B”). A third sample (“Solution C”) consisting of a water saturated ciprofloxacin solution was prepared by dispersing powder obtained from Comparative Example 7.
All three solutions were diluted to various concentrations and were subject to Minimum Bactericidal Concentration Test (MBC) to compare the inhibitory activity via re-growth of Staphylococcus aureus subsp. aureus MRSA252 as percentage of positive control. […] Solution B (DMSO/ciprofloxacin organic solution) maintained activity against MRSA252 at 62.5 mg/L (see FIG. 4(b)).

Fusobacterium nucleatum = assay: IC50 test (half maximal inhibitory concentration) on gram-negative bacterium; type: cell-based; conditions: Triclosan ppm, percentage growth compared to positive control, 800 ppm stock
Description: The effectiveness of the active pharmaceutical ingredient may be measured by means of its “half maximal inhibitory concentration”, also known as the “IC50” value.
The IC50 of a substance is a measure of the effectiveness of that substance in inhibiting a specific biological or biochemical function. The IC50 indicates how much of a particular drug or other substance (inhibitor) is needed to inhibit a given biological process (or component of a process, i.e. an enzyme, cell, cell receptor or microorganism) by half. It is commonly used as a measure of antagonist drug potency in pharmacological research. The IC50 of a drug can be determined by constructing a dose-response curve and examining the effect of different concentrations of antagonist on reversing agonist activity. IC50 values can be calculated for a given antagonist by determining the concentration needed to inhibit half of the maximum biological response of the agonist.
A sample of the Triclosan™/nano-diamond powder produced according to Example 5 was dispersed into deionized water to form an 800 ppm Triclosan™ dispersion (Solution 1).
Triclosan™ was dissolved into an ethanol/water mixture (50/50 in volume) to form an 800 ppm Triclosan™ solution (Solution 2). An IC50 test was conducted with Solution 2 on gram-negative bacteria (Fusobacterium nucleatum). […]

O=C(O)c1cn(C2CC2)c2cc(N3CCNCC3)c(F)cc2c1=O [Solution B, ciprofloxacin]
MBC [1]: 62.5 µg/mL (≈ 189 µM)

Oc1cc(Cl)ccc1Oc1ccc(Cl)cc1Cl [Solution 2, 5-chloro-2-(2,4-dichloro-phenoxy)-phenol]
IC50 (Fusobacterium nucleatum): around 56 ppm
IC50 (Fusobacterium nucleatum; listed as Triclosan™ in a 50:50 by volume water/ethanol solution): ~56 ppm
